Experimental data reported in patent US4329347A, “Cardiotonic and antithrombotic sulfur-containing derivatives of carbostyril” (Boehringer Ingelheim GmbH, priority 1978, dated 1982).
Like-named read-outs stand apart in the source and are kept apart here.

Key:
[1] = tested on: thrombocyte aggregation in platelet-rich plasma of healthy human donors; experiment: Thrombocyte aggregation inhibiting activity by the method of Born and Cross (platelet-rich plasma); assay type: cell-based; settings: optical density
Method: 1. Determination of the thrombocyte aggregation inhibiting activity by the method of Born and Cross [J. Physiol. 170, 397 (1964)]:
The thrombocyte aggregation was measured in the platelet-rich plasma of healthy human donors. The decrease in optical density was measured and recorded photometrically after the addition of adenosine diphosphate or collagen. From the angle of inclination of the density curve, the rate of aggregation was estimated (Vmax). The optical density was taken as the point on the curve where the most light was transmitted (O.D.).
The EC50 values in the tables indicate the optical density.
Small doses of collagen were chosen, but sufficient to give irreversible aggregation. To provoke maximum aggregation, about 0.01 ml of the collagen solution was added to 1 ml of platelet-rich plasma. (Commercial collagen of Hormonchemie, Munich). The adenosine diphosphate (ADP) doses were chosen to give only the first phase of the BORN curve. The necessary amount of ADP was about 1×10^-6 mol/l. Commercial ADP of Boehringer Mannheim was used.
The substance dose which produced a 50% inhibition of the thrombozytes aggregation (EC50) was determined graphically.

auricles (rat heart) = experiment: Positive inotropic activity on isolated rat auricles; parameters: species or system rats; settings: 1×10^-5 gm/ml, 30° C., from the starting values, read-out: % Increase in Force of Contraction
Method: Rats were anesthetized with ether and subsequently killed by a blow on the neck. After opening the thorax, the heart was removed and both auricles were separated. The auricles were put into an organ bath of 100 ml containing a tyrode solution at a temperature of 30° C. The tyrode solution was infused with carbogen (95% of O2 and 5% of CO2). The spontaneous contractions of the auricles were registered isometrically. The auricles were weighted with 1 gm. The compounds in question were tested on 4 auricles each at 1×10^-5 gm/ml. The alteration of the contraction force was registered in % from the starting values.

[2] = tested on: phosphodiesterase (PDE), supernatant of human blood platelets; experiment: PDE inhibition (3H-cAMP hydrolysis); assay type: biochemical; settings: human blood platelet PDE, 1 μmol/liter 3H-cAMP, pH 7.4, 15 minutes, 37° C.
Method: cAMP is hydrolysed to AMP by phosphodiesterase (PDE) from various sources, including blood platelets. This hydrolysis is inhibited by PDE inhibitors according to the concentration.
The phosphodiesterase used was the 10,000×g supernatant of human blood platelets which had been frozen with water and thawed out again.
An amount of 0.3 ml of a mixture which contained 0.1 mole/liter of trihydroxy-aminomethane (pH 7.4), 3 mmole/liter of magnesium chloride, 1 mmole/liter of AMP, 1 μmol/liter of ^3 H-cAMP (specific activity about 10 MBq/μmol), PDE as well as the substance to be tested and water for the control were incubated for 15 minutes at 37° C.
The incubation was stopped by the addition of 0.5 ml of zinc sulfate (0.266 mole/liter) and 0.5 ml of barium hydroxide (0.266 mole/liter), the precipitate was centrifuged and the activity remaining in the supernatant of the unreacted ^3 H-cAMP was determined. From a comparison of the substance preparations and the control preparations, the concentration for a 50% inhibiting activity (IC50) of the respective substance was calculated.

[3] = tested on: Platelet Thromboses in the Rat; experiment: Influence on platelet thromboses in the rat (electrical irritation of a vein); assay type: in vivo; settings: male rats, five animals per dose, 20 minutes observation, vs. untreated group; dose not given
Method: Literature: H. Poliwoda, J. Lilli, G. Hagemann, D. Schyma: Z. ges. exp. Med., 145, 252 (1968)
Male rats (body weight between 70 and 90 grams) received an intraperitoneal Nembutal anesthesia (dose: 50 to 60 mg/kg). To avoid hypothermia, they were positioned on a heated test table (about 37° C.). The respiratory passage was held free by insertion of a tracheal cannula.
After a transverse abdominal incision was made, an intestinal loop was exposed and fixed, and a vein, with a diameter of about 300 μ was prepared. A monopolar platinum electrode embedded in glass and having a tip diameter of about 100μ was applied to the vein as an irritating cathode. The indifferent electrode was applied to the same vessel opposite the cathode. The irritation was provoked by 150 volts of direct current for a period of 100 milliseconds. After the irritation, the area of observation was continuously rinsed with warm (37° C.) physiological salt solution.
The formation and growth of the thrombosis was followed under a binocular microscope over a time period of 20 minutes. During the entire period of observation, the percentage of the vessel volume closed by the thrombosis was estimated at different time intervals.
Five animals per dose were used, and the results were averaged.
In the test compound experiments, the average size of the thrombosis in the treated animal group was compared with that of an untreated animal group. The result was given as "percentage reduction of the average thrombosis size." The following table contains the values obtained.

Acute toxicity, oral = assay type: in vivo; settings: mouse, in vivo; mice, single oral dose, 14 days observation; read-out: Acute Toxicity per os
Method: (§1) The acute toxicity of the test compounds was determined on groups of 10 mice each after oral administration of a single dose of 1,000 mg/kg (observation time: 14 days).

mice = experiment: Acute toxicity, oral; assay type: in vivo; settings: single oral dose of 1,000 mg/kg, 14 days observation
Method: as §1

conscious mice = experiment: Prolongation of the bleeding time (mouse tail); assay type: in vivo; settings: po, 10 mg/kg orally, after 1 hour, compared to control group, read-out: Prolongation of the bleeding time in % after one hour
Method: The function of the thrombocytes can be determined by measuring the bleeding time. The normal bleeding time in human beings is in the range of 1 to 3 minutes and needs intact thrombozytes in a sufficient number. If the number of thrombocytes is normal and the bleeding time is prolonged, this signifies a disturbed function of the thrombocytes. This is found in some congenital defects of thrombocyte function (V. Willebrand's disease, for example). If, on the other hand it is the aim to prevent spontaneous aggregation of the thrombocytes and occlusion in the arterial system by antithrombotic drugs, the bleeding time should be prolonged as a consequence. Therefore, using antithrombotic substances, a prolongation of the bleeding time is expected. If the plasma coagulation system is not influenced by such a medicine, coagulation tests will give a normal result.
To measure the bleeding time, 10 mg/kg of the test compound is administered orally to conscious mice. After 1 hour, 0.5 mm of the tip of the mousetail is cut off and droplets of blood are gently removed with filter paper every 30 second. The number of drops of blood give a measure for the bleeding time (5 animals/experiment).
The numbers in the following table represent the prolongation in % compared to the control group.

[4] = ADP-induced (about 1×10^-6 mol/l), read-out: EC50 (50% inhibition of thrombocyte aggregation), ADP
[5] = collagen-induced, read-out: EC50 (50% inhibition of thrombocyte aggregation), Collagen

Row | SMILES | EC50 [1, 4] [µM] | EC50 [1, 5] [µM] | activation at 10 µg/mL (auricles (rat heart)) [%] | IC50 [2] [nM] | Percentage Reduction of the Average Thrombosis Size [3] [%] | LD50 at 336 h (Acute toxicity, oral) [mg/kg] | animals died (acute toxicity per os) (mice) | change in vivo at 10 mg/kg (conscious mice) [%]
1 | O=C1CCc2cc(OCCCC[S+]([O-])c3ccccc3)ccc2N1 (stereo not shown) [B, 6-(4-Phenylsulfinyl-butoxy)-3,4-dihydro-carbostyril] | 20 | 4 | 30 | 1900 | 23 | > 1000 | 0 out of 10 animals | 102
2 | O=C1CCc2cc(OCCCCS(=O)(=O)c3ccccc3)ccc2N1 [Compound C, 6-(4-Phenylsulfonyl-butoxy)-3,4-dihydro-carbostyril] | 15 | 5 | 35 | 1500 | – | > 1000 | 0 out of 10 animals | 26
3 | O=C1CCc2cc(OCCCC[S+]([O-])c3ccccn3)ccc2N1 (stereo not shown) [E, 6-[4-(2-Pyridyl-sulfinyl)-butoxy]-3,4-dihydro-carbostyril] | 25 | 6.5 | 16 | 3900 | 16 | > 1000 | 0 out of 10 animals | 152
4 | O=C1CCc2cc(OCCCCS(=O)(=O)c3ccccn3)ccc2N1 [F, 6-[4-(2-Pyridyl-sulfonyl)-butoxy]-3,4-dihydro-carbostyril] | 20 | 20 | 18 | 3800 | – | > 1000 | 0 out of 10 animals | 91
5 | O=C1CCc2cc(OCCCC[S+]([O-])c3ccc(Cl)cc3)ccc2N1 (stereo not shown) [I, 6-[4-(4-Chlorophenyl-sulfinyl)-butoxy]-3,4-dihydro-carbostyril] | 10 | 4 | 52 | 800 | 4 | > 1000 | 0 out of 10 animals | > 300
6 | O=C1CCc2cc(OCCCC[S+]([O-])c3ccc4ccccc4c3)ccc2N1 (stereo not shown) [L, 6-[4-(2-Naphthyl-sulfinyl)-butoxy]-3,4-dihydro-carbostyril] | 10 | 1 | 63 | 140 | – | > 1000 | 0 out of 10 animals | 15
7 | COc1ccccc1[S+]([O-])CCCCOc1ccc2c(c1)CCC(=O)N2 (stereo not shown) [M, 6-[4-(2-Methoxyphenyl-sulfinyl)-butoxy]-3,4-dihydro-carbostyril] | 22 | 4 | 65 | 150 | – | > 1000 | 0 out of 10 animals | 27
8 | O=c1ccc2cc(OCCCC[S+]([O-])c3ccc(Cl)c(Cl)c3)ccc2[nH]1 (stereo not shown) [P, 6-[4-(3,4-Dichlorophenyl-sulfinyl)-butoxy]-carbostyril] | 1.8 | 0.2 | – | 220 | 15 | > 1000 | 0 out of 10 animals | 12
9 | Cc1cc(=O)[nH]c2ccc(OCCCC[S+]([O-])c3ccccc3)cc12 (stereo not shown) [Q, 4-Methyl-6-(4-phenylsulfinyl-butoxy)-carbostyril] | 40 | 3.6 | 58 | 640 | 22 | > 1000 | 0 out of 10 animals | 39
10 | O=C1CCc2cc(OCCCC[S+]([O-])c3cc(Cl)ccc3Cl)ccc2N1 (stereo not shown) [S, 6-[4-(2,5-Dichlorophenyl-sulfinyl)-butoxy]-3,4-dihydro-carbostyril] | 10 | 1 | 83 | 2100 | – | > 1000 | 0 out of 10 animals | –
